The target of this assay is T1, human PTHR1 receptor (Homo sapiens, UniProt Q03431).
T1 construct: purchased Eurofins HTS030M
T1 sequence (Q03431 27-593): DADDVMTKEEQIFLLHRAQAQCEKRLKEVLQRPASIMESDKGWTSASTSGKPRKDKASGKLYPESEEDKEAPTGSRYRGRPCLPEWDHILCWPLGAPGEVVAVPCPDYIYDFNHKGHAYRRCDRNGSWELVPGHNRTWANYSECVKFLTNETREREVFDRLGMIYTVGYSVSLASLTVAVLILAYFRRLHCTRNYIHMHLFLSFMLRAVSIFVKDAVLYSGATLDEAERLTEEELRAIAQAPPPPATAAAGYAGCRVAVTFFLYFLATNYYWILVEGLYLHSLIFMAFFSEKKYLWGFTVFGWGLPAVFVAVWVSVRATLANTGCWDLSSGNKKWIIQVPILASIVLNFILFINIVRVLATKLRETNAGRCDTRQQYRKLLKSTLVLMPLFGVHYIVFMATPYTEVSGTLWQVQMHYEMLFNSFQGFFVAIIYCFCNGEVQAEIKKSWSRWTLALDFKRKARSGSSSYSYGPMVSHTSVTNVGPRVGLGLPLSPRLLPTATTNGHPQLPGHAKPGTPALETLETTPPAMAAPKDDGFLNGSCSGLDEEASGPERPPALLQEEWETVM
Nature of the assay: Competitive antagonist binding assay for hPTH-R1 (radioactive competition binding, SPA beads). The settings on record: human PTHR1 membranes, [125I]-[Nle8,18,Tyr34]-PTH(1-34) 0.2 nM, 90 minutes at room temperature; read-out: hPTHR1 Ki. Here is the method: Competitive Antagonist Binding Assay Protocol for hPTH-R1 Antagonists:
The inhibition of binding to the human PTHR1 receptor was measured in a radioactive competition binding assay using the radiolabeled [^125I]-[NLE^8,18, TYR^34]-parathyroid hormone (1-34) ligand (PerkinElmer Cat# NEX244, custom synthesis) as the probe ligand for the receptor. Briefly, membranes from cells expressing the human PTHR1 (Eurofins Cat# HTS030M) were incubated with SPA beads (PerkinElmer Cat# RPNQ0001) in binding assay buffer [50 mM HEPES (Biopioneer Cat# C0113), 5 mM MgCl2 (Sigma Cat# M8266), 10 mM CaCl2 (Fisher Scientific Cat# BP510), 0.1% BSA (Fisher Scientific Cat# BP1600), 0.01% TritonX-100 (Bio-Rad Cat#161-0407), and protease inhibitors (Pierce Cat# A32963); pH 7.4]. Membranes bound to SPA bead were treated with various dilutions of compounds (final concentrations typically 0-10,000 nM), and 0.2 nM radiolabeled ligand in 96-well isoplates (PerkinElmer Cat#6005040) for 90 minutes at room temperature. The radioactive signal was detected using a MicroBetaTriLux 1450 LSC (PerkinElmer). All data manipulations to determine the Ki values were performed using GraphPad v8 (GraphPad, San Diego Calif.).

Some results are limits rather than exact numbers.

What is called Ki is the equilibrium dissociation constant of an inhibitor or competing ligand from its target.

On to `CCN1C(=O)N(c2ccc(NCCNCCO)cc2)c2cc(Cl)ccc2-c2cc(Cl)cnc21` [2-9, 4,13-dichloro-8-ethyl-10-[4-({2-[(2-hydroxyethyl)amino]ethyl}amino)phenyl]-6,8,10-triazatricyclo[9.4.0.0^2,7]pentadeca-1(11),2(7),3,5,12,14-hexaen-9-one], for which the Ki is below 100 nM.

For `CCN1C(=O)N(c2c(F)cc(NCCNC3CCOC3)cc2F)c2cc(Cl)ccc2-c2cc(F)cnc21` (centres unmarked) [1-20, 13-chloro-10-[2,6-difluoro-4-({2-[(oxolan-3-yl)amino]ethyl}amino)phenyl]-8-ethyl-4-fluoro-6,8,10-triazatricyclo[9.4.0.0^2,7]pentadeca-1(11),2(7),3,5,12,14-hexaen-9-one], the Ki is below 100 nM.

On to `CCN1C(=O)N(c2c(F)cc(NCCN[C@@H]3CC[C@@H]3O)cc2F)c2cc(C#N)ccc2-c2cc(C(F)(F)F)cnc21` [1-184, 10-{2,6-difluoro-4-[(2-{[(1R,2S)-2-hydroxycyclobutyl]amino}ethyl)amino]phenyl}-8-ethyl-9-oxo-4-(trifluoromethyl)-6,8,10-triazatricyclo[9.4.0.0^2,7]pentadeca-1(11),2(7),3,5,12,14-hexaene-13-carbonitrile], for which the Ki is below 100 nM.

Take `CCN1C(=O)N(c2c(F)cc(NCCNC)cc2F)c2cc(C(F)(F)F)ccc2-c2cc(F)cnc21` [1-66, 10-(2,6-difluoro-4-{[2-(methylamino)ethyl]amino}phenyl)-8-ethyl-4-fluoro-13-(trifluoromethyl)-6,8,10-triazatricyclo[9.4.0.0^2,7]pentadeca-1(11),2(7),3,5,12,14-hexaen-9-one]: the inhibition constant (Ki) is below 100 nM.

Take `CCN1C(=O)N(c2c(F)cc(NCCN)cc2F)c2cc(C#N)ccc2-c2cc(Cl)cnc21` [1-126, 10-{4-[(2-aminoethyl)amino]-2,6-difluorophenyl}-4-chloro-8-ethyl-9-oxo-6,8,10-triazatricyclo[9.4.0.0^2,7]pentadeca-1(11),2(7),3,5,12,14-hexaene-13-carbonitrile]: the Ki was below 100 nM.

Regarding `CNCCNc1cc(F)c(N2C(=O)N(C(C)C)c3ncc(F)cc3-c3ccc(C#N)cc32)c(F)c1` [1-84, 10-(2,6-difluoro-4-{[2-(methylamino)ethyl]amino}phenyl)-4-fluoro-9-oxo-8-(propan-2-yl)-6,8,10-triazatricyclo[9.4.0.0^2,7]pentadeca-1(11),2(7),3,5,12,14-hexaene-13-carbonitrile], the inhibition constant Ki was below 100 nM.

Consider `CCN1C(=O)N(c2c(F)cc(NCCN[C@@H](C)CO)cc2F)c2cc(C#N)ccc2-c2cc(Cl)cnc21` [1-185, 4-chloro-10-{2,6-difluoro-4-[(2-{[(2S)-1-hydroxypropan-2-yl]amino}ethyl)amino]phenyl}-8-ethyl-9-oxo-6,8,10-triazatricyclo[9.4.0.0^2,7]pentadeca-1(11),2(7),3,5,12,14-hexaene-13-carbonitrile], for which the Ki was below 100 nM.

As for `CCN1C(=O)N(c2c(F)cc(NCCN[C@H]3CC[C@H](C(=O)O)CC3)cc2F)c2cc(C#N)ccc2-c2cc(Cl)cnc21` [1-193, (1r,4r)-4-({2-[(4-{4-chloro-13-cyano-8-ethyl-9-oxo-6,8,10-triazatricyclo[9.4.0.0^2,7]pentadeca-1(11),2(7),3,5,12,14-hexaen-10-yl}-3,5-difluorophenyl)amino]ethyl}amino)cyclohexane-1-carboxylic acid], the Ki is below 100 nM.

As for `CCN1C(=O)N(c2c(F)cc(NCCNC)cc2F)c2cc(Cl)cc(Cl)c2-c2cc(F)cnc21` [1-38, 13,15-dichloro-10-(2,6-difluoro-4-{[2-(methylamino)ethyl]amino}phenyl)-8-ethyl-4-fluoro-6,8,10-triazatricyclo[9.4.0.0^2,7]pentadeca-1(11),2(7),3,5,12,14-hexaen-9-one], the Ki is below 100 nM.

Turning to `CN1C(=O)N(c2c(F)cc(NCCNCCO)cc2F)c2cc(C#N)cc(F)c2-c2cc(Cl)cnc21` [1-116, 4-chloro-10-[2,6-difluoro-4-({2-[(2-hydroxyethyl)amino]ethyl}amino)phenyl]-15-fluoro-8-methyl-9-oxo-6,8,10-triazatricyclo[9.4.0.0^2,7]pentadeca-1(11),2(7),3,5,12,14-hexaene-13-carbonitrile], the Ki is below 100 nM.

In the case of `CCN1C(=O)N(c2c(F)cc(NCCNC)cc2F)c2cc(Cl)cc(OC)c2-c2cc(F)cnc21` [1-87, 13-chloro-10-(2,6-difluoro-4-{[2-(methylamino)ethyl]amino}phenyl)-8-ethyl-4-fluoro-15-methoxy-6,8,10-triazatricyclo[9.4.0.0^2,7]pentadeca-1(11),2(7),3,5,12,14-hexaen-9-one], the Ki was below 100 nM.

In the case of `CCN1C(=O)N(c2c(F)cc(NCCNC)cc2F)c2cc(C#N)ccc2-c2cc(F)cnc21` [1-81, 10-(2,6-difluoro-4-{[2-(methylamino)ethyl]amino}phenyl)-8-ethyl-4-fluoro-9-oxo-6,8,10-triazatricyclo[9.4.0.0^2,7]pentadeca-1(11),2(7),3,5,12,14-hexaene-13-carbonitrile], the Ki is below 100 nM.

On to `CCN1C(=O)N(c2c(F)cc(NCCNC)cc2F)c2cc(Cl)cc(C)c2-c2cc(Cl)cnc21` [1-36, 4,13-dichloro-10-(2,6-difluoro-4-{[2-(methylamino)ethyl]amino}phenyl)-8-ethyl-15-methyl-6,8,10-triazatricyclo[9.4.0.0^2,7]pentadeca-1(11),2(7),3,5,12,14-hexaen-9-one], for which the Ki is below 100 nM.

For `CCN1C(=O)N(c2c(F)cc(NCCNC[C@@H](C)O)cc2F)c2cc(C#N)ccc2-c2cc(F)cnc21` [1-203, 10-{2,6-difluoro-4-[(2-{[(2R)-2-hydroxypropyl]amino}ethyl)amino]phenyl}-8-ethyl-4-fluoro-9-oxo-6,8,10-triazatricyclo[9.4.0.0^2,7]pentadeca-1(11),2(7),3,5,12,14-hexaene-13-carbonitrile], the Ki was below 100 nM.

Consider `CN1C(=O)N(c2c(F)cc(NCCN)cc2F)c2cc(Cl)ccc2-c2cc(Cl)cnc21` [1-33, 10-{4-[(2-aminoethyl)amino]-2,6-difluorophenyl}-4,13-dichloro-8-methyl-6,8,10-triazatricyclo[9.4.0.0^2,7]pentadeca-1(11),2(7),3,5,12,14-hexaen-9-one], for which the Ki was below 100 nM.

Take `CCN1C(=O)N(c2c(F)cc(NCCNCCN)cc2F)c2cc(C#N)ccc2-c2cc(Cl)cnc21` [1-131, 10-[4-({2-[(2-aminoethyl)amino]ethyl}amino)-2,6-difluorophenyl]-4-chloro-8-ethyl-9-oxo-6,8,10-triazatricyclo[9.4.0.0^2,7]pentadeca-1(11),2(7),3,5,12,14-hexaene-13-carbonitrile]: the Ki was below 100 nM.

As to `CCN1C(=O)N(c2c(F)cc(NCCN3CCOCC3)cc2F)c2cc(C#N)ccc2-c2cc(Cl)cnc21` [1-148, 4-chloro-10-(2,6-difluoro-4-{[2-(morpholin-4-yl)ethyl]amino}phenyl)-8-ethyl-9-oxo-6,8,10-triazatricyclo[9.4.0.0^2,7]pentadeca-1(11),2(7),3,5,12,14-hexaene-13-carbonitrile], the Ki was 100 to 1000 nM.

As to `CCN1C(=O)N(c2c(F)cc(N3CC[C@@H](N)C3)cc2F)c2cc(Cl)cc(C)c2-c2cc(F)cnc21` [1-65, 10-{4-[(3R)-3-aminopyrrolidin-1-yl]-2,6-difluorophenyl}-13-chloro-8-ethyl-4-fluoro-15-methyl-6,8,10-triazatricyclo[9.4.0.0^2,7]pentadeca-1(11),2(7),3,5,12,14-hexaen-9-one], the Ki was below 100 nM.

Take `CCN1C(=O)N(c2c(F)cc(NCCNCCOC)cc2F)c2cc(Cl)ccc2-c2cc(Cl)cnc21` [1-74, 4,13-dichloro-10-[2,6-difluoro-4-({2-[(2-methoxyethyl)amino]ethyl}amino)phenyl]-8-ethyl-6,8,10-triazatricyclo[9.4.0.0^2,7]pentadeca-1(11),2(7),3,5,12,14-hexaen-9-one]: the Ki was below 100 nM.

For the compound `CNCCNc1cc(F)c(N2C(=O)N(C(C)C)c3ncc(F)cc3-c3c(C)cc(Cl)cc32)c(F)c1` [1-78, 13-chloro-10-(2,6-difluoro-4-{[2-(methylamino)ethyl]amino}phenyl)-4-fluoro-15-methyl-8-(propan-2-yl)-6,8,10-triazatricyclo[9.4.0.0^2,7]pentadeca-1(11),2(7),3,5,12,14-hexaen-9-one], the Ki was below 100 nM.

For the origin of these results see US20230159532A1, “PARATHYROID HORMONE (PTH) RECEPTOR ANTAGONISTS AND USES THEREOF” (Crinetics Pharmaceuticals, Inc., priority 2021, published 2023).
